Measurements reported in US10351546B2, “Pyridin-3-yl acetic acid derivatives as inhibitors of human immunodeficiency virus replication” (priority 2015, dated 2019).

These compounds were tested on NL-RLuc virus (assay: Inhibition of HIV replication (NL-RLuc luciferase reporter virus in MT-2 cells)). Details: Human immunodeficiency virus 1, MT2, 120 h, read-out: Activity.
Type: cell-based
Summary of the method: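 The read-out is Renilla luciferase expressed by replication-competent NL-RLuc (nef partly replaced), measured 5 days after infection of MT-2 cells grown with compound dilutions in 10% FBS RPMI. Median effect equation gives EC50 from ≥2 runs; A ≤100 nM, B 100 nM–1 uM, C >1 uM.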

SMILES	EC50 [µM]
Cc1ncc(-c2ccc(OCCc3ccc(F)cc3)cc2)c(N2CCC(C)(C)CC2)c1[C@H](OC(C)(C)C)C(=O)O [Example 63, (S)-2-(tert-Butoxy)-2-(4-(4,4-dimethylpiperidin-1-yl)-5-(4-(4-fluorophenethoxy)phenyl)-2-methylpyridin-3-yl)acetic acid]	< 0.1
CNCc1nc(C)c([C@H](OC(C)(C)C)C(=O)O)c(N2CCC(C)(C)CC2)c1-c1ccc(OCCc2ccc(F)cc2)cc1 [Example 64, (S)-2-(tert-Butoxy)-2-(4-(4,4-dimethylpiperidin-1-yl)-5-(4-(4-fluorophenethoxy)phenyl)-2-methyl-6-((methylamino)methyl)pyridin-3-yl)acetic acid]	< 0.1
Cc1nc(CN(C)C)c(-c2ccc(OCCc3ccc(F)cc3)cc2)c(N2CCC(C)(C)CC2)c1[C@H](OC(C)(C)C)C(=O)O [Example 65, (S)-2-(tert-Butoxy)-2-(6-((dimethylamino)methyl)-4-(4,4-dimethylpiperidin-1-yl)-5-(4-(4-fluorophenethoxy)phenyl)-2-methylpyridin-3-yl)acetic acid]	< 0.1
Cc1nc(CNC(C)C)c(-c2ccc(OCCc3ccc(F)cc3)cc2)c(N2CCC(C)(C)CC2)c1[C@H](OC(C)(C)C)C(=O)O [Example 66, (S)-2-(tert-Butoxy)-2-(4-(4,4-dimethylpiperidin-1-yl)-5-(4-(4-fluorophenethoxy)phenyl)-6-((isopropylamino)methyl)-2-methylpyridin-3-yl)acetic acid]	< 0.1
Cc1nc(CNCC2CCOCC2)c(-c2ccc(OCCc3ccc(F)cc3)cc2)c(N2CCC(C)(C)CC2)c1[C@H](OC(C)(C)C)C(=O)O [Example 67, (S)-2-(tert-Butoxy)-2-(4-(4,4-dimethylpiperidin-1-yl)-5-(4-(4-fluorophenethoxy)phenyl)-2-methyl-6-((((tetrahydro-2H-pyran-4-yl)methyl)amino)methyl)pyridin-3-yl)acetic acid]	< 0.1
COCCNCc1nc(C)c([C@H](OC(C)(C)C)C(=O)O)c(N2CCC(C)(C)CC2)c1-c1ccc(OCCc2ccc(F)cc2)cc1 [Example 68, (S)-2-(tert-Butoxy)-2-(4-(4,4-dimethylpiperidin-1-yl)-5-(4-(4-fluorophenethoxy)phenyl)-6-(((2-methoxyethyl)amino)methyl)-2-methylpyridin-3-yl)acetic acid]	< 0.1
Cc1nc(CNCCO)c(-c2ccc(OCCc3ccc(F)cc3)cc2)c(N2CCC(C)(C)CC2)c1[C@H](OC(C)(C)C)C(=O)O [Example 69, (S)-2-(tert-Butoxy)-2-(4-(4,4-dimethylpiperidin-1-yl)-5-(4-(4-fluorophenethoxy)phenyl)-6-(((2-hydroxyethyl)amino)methyl)-2-methylpyridin-3-yl)acetic acid]	< 0.1
Cc1nc(CN2CCOCC2)c(-c2ccc(OCCc3ccc(F)cc3)cc2)c(N2CCC(C)(C)CC2)c1[C@H](OC(C)(C)C)C(=O)O [Example 70, (S)-2-(tert-Butoxy)-2-(4-(4,4-dimethylpiperidin-1-yl)-5-(4-(4-fluorophenethoxy)phenyl)-2-methyl-6-(morpholinomethyl)pyridin-3-yl)acetic acid]	< 0.1
CCNCc1nc(C)c([C@H](OC(C)(C)C)C(=O)O)c(N2CCC(C)(C)CC2)c1-c1ccc(OCCc2ccc(F)cc2)cc1 [Example 71, (S)-2-(tert-Butoxy)-2-(4-(4,4-dimethylpiperidin-1-yl)-6-((ethylamino)methyl)-5-(4-(4-fluorophenethoxy)phenyl)-2-methylpyridin-3-yl)acetic acid]	< 0.1
Cc1nc(CNCc2ccccc2)c(-c2ccc(OCCc3ccc(F)cc3)cc2)c(N2CCC(C)(C)CC2)c1[C@H](OC(C)(C)C)C(=O)O [Example 72, (S)-2-(6-((Benzylamino)methyl)-4-(4,4-dimethylpiperidin-1-yl)-5-(4-(4-fluorophenethoxy)phenyl)-2-methylpyridin-3-yl)-2-(tert-butoxy)acetic acid]	< 0.1
Cc1nc(CNc2ccccc2)c(-c2ccc(OCCc3ccc(F)cc3)cc2)c(N2CCC(C)(C)CC2)c1[C@H](OC(C)(C)C)C(=O)O [Example 73, (S)-2-(tert-Butoxy)-2-(4-(4,4-dimethylpiperidin-1-yl)-5-(4-(4-fluorophenethoxy)phenyl)-2-methyl-6-((phenylamino)methyl)pyridin-3-yl)acetic acid]	< 0.1
Cc1nc(CNCc2ccncc2)c(-c2ccc(OCCc3ccc(F)cc3)cc2)c(N2CCC(C)(C)CC2)c1[C@H](OC(C)(C)C)C(=O)O [Example 74, (S)-2-(tert-Butoxy)-2-(4-(4,4-dimethylpiperidin-1-yl)-5-(4-(4-fluorophenethoxy)phenyl)-2-methyl-6-(((pyridin-4-ylmethyl)amino)methyl)pyridin-3-yl)acetic acid]	< 0.1
Cc1nc(CN2CCCC2)c(-c2ccc(OCCc3ccc(F)cc3)cc2)c(N2CCC(C)(C)CC2)c1[C@H](OC(C)(C)C)C(=O)O [Example 75, (S)-2-(tert-Butoxy)-2-(4-(4,4-dimethylpiperidin-1-yl)-5-(4-(4-fluorophenethoxy)phenyl)-2-methyl-6-(pyrrolidin-1-ylmethyl)pyridin-3-yl)acetic acid]	< 0.1
Cc1nc(CNCC2COC2)c(-c2ccc(OCCc3ccc(F)cc3)cc2)c(N2CCC(C)(C)CC2)c1[C@H](OC(C)(C)C)C(=O)O [Example 76, (S)-2-(tert-Butoxy)-2-(4-(4,4-dimethylpiperidin-1-yl)-5-(4-(4-fluorophenethoxy)phenyl)-2-methyl-6-(((oxetan-3-ylmethyl)amino)methyl)pyridin-3-yl)acetic acid]	< 0.1
Cc1nc(CNC2COC2)c(-c2ccc(OCCc3ccc(F)cc3)cc2)c(N2CCC(C)(C)CC2)c1[C@H](OC(C)(C)C)C(=O)O [Example 77, (S)-2-(tert-Butoxy)-2-(4-(4,4-dimethylpiperidin-1-yl)-5-(4-(4-fluorophenethoxy)phenyl)-2-methyl-6-((oxetan-3-ylamino)methyl)pyridin-3-yl)acetic acid]	< 0.1
Cc1nc(CNCc2cocn2)c(-c2ccc(OCCc3ccc(F)cc3)cc2)c(N2CCC(C)(C)CC2)c1[C@H](OC(C)(C)C)C(=O)O [Example 78, (S)-2-(tert-Butoxy)-2-(4-(4,4-dimethylpiperidin-1-yl)-5-(4-(4-fluorophenethoxy)phenyl)-2-methyl-6-(((oxazol-4-ylmethyl)amino)methyl)pyridin-3-yl)acetic acid]	< 0.1
Cc1nc(CN2CCSCC2)c(-c2ccc(OCCc3ccc(F)cc3)cc2)c(N2CCC(C)(C)CC2)c1[C@H](OC(C)(C)C)C(=O)O [Example 79, (S)-2-(tert-Butoxy)-2-(4-(4,4-dimethylpiperidin-1-yl)-5-(4-(4-fluorophenethoxy)phenyl)-2-methyl-6-(thiomorpholinomethyl)pyridin-3-yl)acetic acid]	< 0.1
Cc1nc(CN2CCCCC2)c(-c2ccc(OCCc3ccc(F)cc3)cc2)c(N2CCC(C)(C)CC2)c1[C@H](OC(C)(C)C)C(=O)O [Example 80, (S)-2-(tert-Butoxy)-2-(4-(4,4-dimethylpiperidin-1-yl)-5-(4-(4-fluorophenethoxy)phenyl)-2-methyl-6-(piperidin-1-ylmethyl)pyridin-3-yl)acetic acid]	< 0.1
Cc1nc(CN2CCC2)c(-c2ccc(OCCc3ccc(F)cc3)cc2)c(N2CCC(C)(C)CC2)c1[C@H](OC(C)(C)C)C(=O)O [Example 81, (S)-2-(6-(Azetidin-1-ylmethyl)-4-(4,4-dimethylpiperidin-1-yl)-5-(4-(4-fluorophenethoxy)phenyl)-2-methylpyridin-3-yl)-2-(tert-butoxy)acetic acid]	< 0.1
Cc1nc(CN2CCC3(CCC3)CC2)c(-c2ccc(OCCc3ccc(F)cc3)cc2)c(N2CCC(C)(C)CC2)c1[C@H](OC(C)(C)C)C(=O)O [Example 82, (S)-2-(6-(7-Azaspiro[3.5]nonan-7-ylmethyl)-4-(4,4-dimethylpiperidin-1-yl)-5-(4-(4-fluorophenethoxy)phenyl)-2-methylpyridin-3-yl)-2-(tert-butoxy)acetic acid]	< 0.1
Cc1nc(CN2CCS(=O)(=O)CC2)c(-c2ccc(OCCc3ccc(F)cc3)cc2)c(N2CCC(C)(C)CC2)c1[C@H](OC(C)(C)C)C(=O)O [Example 83, (S)-2-(tert-Butoxy)-2-(4-(4,4-dimethylpiperidin-1-yl)-6-((1,1-dioxidothiomorpholino)methyl)-5-(4-(4-fluorophenethoxy)phenyl)-2-methylpyridin-3-yl)acetic acid]	< 0.1
Cc1nc(CN(C)CC2CCOCC2)c(-c2ccc(OCCc3ccc(F)cc3)cc2)c(N2CCC(C)(C)CC2)c1[C@H](OC(C)(C)C)C(=O)O [Example 84, (S)-2-(tert-Butoxy)-2-(4-(4,4-dimethylpiperidin-1-yl)-5-(4-(4-fluorophenethoxy)phenyl)-2-methyl-6-((methyl((tetrahydro-2H-pyran-4-yl)methyl)amino)methyl)pyridin-3-yl)acetic acid]	< 0.1
COC1CCN(Cc2nc(C)c([C@H](OC(C)(C)C)C(=O)O)c(N3CCC(C)(C)CC3)c2-c2ccc(OCCc3ccc(F)cc3)cc2)CC1 [Example 85, (S)-2-(tert-Butoxy)-2-(4-(4,4-dimethylpiperidin-1-yl)-5-(4-(4-fluorophenethoxy)phenyl)-6-((4-methoxypiperidin-1-yl)methyl)-2-methylpyridin-3-yl)acetic acid]	< 0.1
Cc1nc(CN2CCC(F)(F)CC2)c(-c2ccc(OCCc3ccc(F)cc3)cc2)c(N2CCC(C)(C)CC2)c1[C@H](OC(C)(C)C)C(=O)O [Example 86, (S)-2-(tert-Butoxy)-2-(6-((4,4-difluoropiperidin-1-yl)methyl)-4-(4,4-dimethylpiperidin-1-yl)-5-(4-(4-fluorophenethoxy)phenyl)-2-methylpyridin-3-yl)acetic acid]	< 0.1

Same assay, conditions: Human immunodeficiency virus 1, MT2, 120 h, read-out: EC50 μM

SMILES	EC50 [µM]
CCNCc1nc(C)c([C@H](OC(C)(C)C)C(=O)O)c(N2CCC(C)(C)CC2)c1-c1ccc(OCCc2ccc(F)cc2)cc1 [Example 71, (S)-2-(tert-Butoxy)-2-(4-(4,4-dimethylpiperidin-1-yl)-6-((ethylamino)methyl)-5-(4-(4-fluorophenethoxy)phenyl)-2-methylpyridin-3-yl)acetic acid]	0.002
Cc1nc(CNC2COC2)c(-c2ccc(OCCc3ccc(F)cc3)cc2)c(N2CCC(C)(C)CC2)c1[C@H](OC(C)(C)C)C(=O)O [Example 77, (S)-2-(tert-Butoxy)-2-(4-(4,4-dimethylpiperidin-1-yl)-5-(4-(4-fluorophenethoxy)phenyl)-2-methyl-6-((oxetan-3-ylamino)methyl)pyridin-3-yl)acetic acid]	0.067
COC1CCN(Cc2nc(C)c([C@H](OC(C)(C)C)C(=O)O)c(N3CCC(C)(C)CC3)c2-c2ccc(OCCc3ccc(F)cc3)cc2)CC1 [Example 85, (S)-2-(tert-Butoxy)-2-(4-(4,4-dimethylpiperidin-1-yl)-5-(4-(4-fluorophenethoxy)phenyl)-6-((4-methoxypiperidin-1-yl)methyl)-2-methylpyridin-3-yl)acetic acid]	0.001
